According to paper PMC7712541, “Seven New Cytotoxic and Antimicrobial Xanthoquinodins from Jugulospora vestita” (Journal of Fungi, 2020):
In brackets after ≈: the same amount, converted by molar mass.

How the values were obtained:
[1] = tested on: Mycobacterium smegmatis; assay: MIC, antibacterial test; format: cell-based; design: key: –: no inhibition observed under test conditions
Procedure: (§1) Compounds were tested for their antimicrobial activity against […] fungi (Candida albicans, Mucor hiemails, Pichia anomala, Rhodotorula glutinis and Schizosaccharomyces pombe), four different Gram-positive bacteria (Bacillus subtilis, Micrococcus luteus, Mycobacterium smegmatis and Staphylococcus aureus), and three Gram-negative bacteria (Chromobacterium violaceum, Escherichia coli and Pseudomonas aeruginosa), using oxytetracycline as a positive control against Gram-positive and Gram-negative bacteria, while nystatin was used as an antifungal positive control. Besides, cytotoxicities of the compounds against seven mammalian cell lines (human endocervical adenocarcinoma KB 3.1, breast cancer MCF-7, lung cancer A549, ovary cancer SK-OV-3, prostate cancer PC-3, squamous cancer A431, and mouse fibroblasts L929) were determined by the microculture tetrazolium test (MTT) method, using epothilon B as the positive control. Both bioactivity assays were performed following our standard protocols.

[2] = tested on: Chromobacterium violaceum; assay: MIC, antibacterial test; format: cell-based; design: key to Minimum inhibitory concentration (MIC): –: no inhibition observed under test conditions
Procedure: as §1

[3] = tested on: Escherichia coli; assay: MIC, antibacterial test; format: cell-based; design: key to Minimum inhibitory concentration (MIC): –: no inhibition observed under test conditions
Procedure: as §1

[4] = tested on: Pseudomonas aeruginosa; assay: MIC, antibacterial test; format: cell-based; design: key to Minimum inhibitory concentration (MIC): –: no inhibition observed under test conditions
Procedure: as §1

[5] = tested on: KB 3.1, L929, A549, SK-OV-3, PC-3, A431, and MCF-7 mammalian cell lines; assay: Cytotoxicity, summary over all tested cell lines; format: cell-based; conditions: seven mammalian cell lines; read-out: IC50 values, range over all tested cell lines
Procedure: as §1

[6] = Cytotoxicity, MTT method
Procedure: as §1

[7] = tested on: Micrococcus luteus; assay: MIC, antibacterial test; format: cell-based; conditions: read-out: Minimum inhibitory concentration (MIC)
Procedure: as §1

[8] = tested on: Bacillus subtilis; assay: MIC, antibacterial test; format: cell-based; conditions: read-out: Minimum inhibitory concentration (MIC)
Procedure: as §1

[9] = tested on: Staphylococcus aureus; assay: MIC, antibacterial test; format: cell-based; conditions: read-out: Minimum inhibitory concentration (MIC)
Procedure: as §1

[10] = tested on: Mucor hiemalis; assay: MIC, antifungal test; format: cell-based; design: key to Minimum inhibitory concentration (MIC): –: no inhibition observed under test conditions; conditions: for MIC: read-out: Minimum inhibitory concentration (MIC)
Procedure: as §1

[11] = tested on: Candida albicans; assay: MIC, antifungal test; format: cell-based; design: key to Minimum inhibitory concentration (MIC): –: no inhibition observed under test conditions
Procedure: as §1

[12] = tested on: Pichia anomala; assay: MIC, antifungal test; format: cell-based; design: key to Minimum inhibitory concentration (MIC): –: no inhibition observed under test conditions
Procedure: as §1

[13] = tested on: Schizosaccharomyces pombe; assay: MIC, antifungal test; format: cell-based; design: key to Minimum inhibitory concentration (MIC): –: no inhibition observed under test conditions
Procedure: as §1

[14] = tested on: Rhodotorula glutinis; assay: MIC, antifungal test; format: cell-based; design: key to Minimum inhibitory concentration (MIC): –: no inhibition observed under test conditions; conditions: for MIC: read-out: Minimum inhibitory concentration (MIC)
Procedure: as §1

[15] = human, A431 squamous cancer cells
[16] = human, KB 3.1 endocervical adenocarcinoma cells
[17] = human, MCF-7 breast cancer cells
[18] = human, PC-3 prostate cancer cells
[19] = human, SK-OV-3 ovary cancer cells
[20] = read-out: Minimum inhibitory concentration (MIC)

Compound	Minimum inhibitory concentration (MIC) [1]	Minimum inhibitory concentration (MIC) [2]	Minimum inhibitory concentration (MIC) [3]	Minimum inhibitory concentration (MIC) [4]	MIC [7]	MIC [8]	MIC [9]	Minimum inhibitory concentration (MIC) [12]	Minimum inhibitory concentration (MIC) [14]	IC50 [5]	MIC [10]	Minimum inhibitory concentration (MIC) [11]	Minimum inhibitory concentration (MIC) [13]	IC50 [6, 15]	IC50 ([6]; human, A549 lung cancer cells)	IC50 [6, 16]	IC50 [6, 17]	IC50 [6, 18]	IC50 [6, 19]	IC50 ([6]; mouse, L929 fibroblasts)	also measured
CCCC(=O)O[C@H]1c2cc(C)cc(O)c2C(=O)C2=C(O)[C@H]3C=C[C@]21Cc1cc2c(c(O)c13)C(=O)C1=C(O)CC[C@H](O)[C@@]1(C(=O)OC)O2 [Compound 1, Xanthoquinodin A11]	–	–	–	–	4.2 µg/mL (≈ 6.52 µM)	0.4 µg/mL (≈ 0.621 µM)	2.1 µg/mL (≈ 3.26 µM)	–	–	0.03 to 1.46 µM	66.7 µg/mL (≈ 103 µM)	–	–								IC50 ([6]; mouse): 1.13 µM
CCCC(=O)O[C@H]1c2cc(C)cc(O)c2C(=O)C2=C(O)[C@H]3C=C[C@]21Cc1cc(O)c2c(c13)O[C@@]1(C(=O)OC)C(=C(O)CC[C@@H]1O)C2=O [Compound 2, Xanthoquinodin B10]	–	–	–	–	2.1 µg/mL (≈ 3.26 µM)	0.4 µg/mL (≈ 0.621 µM)	2.1 µg/mL (≈ 3.26 µM)	–	–	0.03 to 1.46 µM		–	–	0.06 µM	0.4 µM	0.19 µM	0.04 µM	1.06 µM	0.13 µM	1.46 µM	Minimum inhibitory concentration (MIC) [10]: –
CCCC(=O)O[C@H]1c2cc(C)cc(O)c2C(=O)C2=C(O)[C@H]3C=C[C@]21Cc1cc(O)c2c(c13)O[C@@]1(C(=O)OC)C(=C(O)[C@@H](O)C[C@@H]1O)C2=O [Compound 4, Xanthoquinodin B12]	–	–	–	–	2.1 µg/mL (≈ 3.18 µM)	0.8 µg/mL (≈ 1.21 µM)	2.1 µg/mL (≈ 3.18 µM)	–		1.03 to 18.6 µM	66.7 µg/mL (≈ 101 µM)	–	–								IC50 ([6]; mouse): 13.5 µM; MIC [14]: 66.7 µg/mL (≈ 101 µM)
COC(=O)[C@]12Oc3c(c(O)cc4c3[C@@H]3C=C[C@]5(C4)C(=C3O)C(=O)c3c(O)cc(C)cc3[C@@H]5OC(C)=O)C(=O)C1=C(O)CC[C@@H]2O [Compound 5, Xanthoquinodin B13]	–	–	–	–	2.1 µg/mL (≈ 3.41 µM)	0.2 µg/mL (≈ 0.324 µM)	8.3 µg/mL (≈ 13.5 µM)	–	–	0.03 to 1.46 µM	66.7 µg/mL (≈ 108 µM)	–	–								IC50 ([6]; mouse): 1.12 µM

Further lines, with some results ahead:

Minimum inhibitory concentration (MIC) [1]	Minimum inhibitory concentration (MIC) [2]	Minimum inhibitory concentration (MIC) [3]	Minimum inhibitory concentration (MIC) [4]	MIC [7]	MIC [8]	MIC [9]	Minimum inhibitory concentration (MIC) [12]	Minimum inhibitory concentration (MIC) [14]	Compound	IC50 [5]	MIC [10]	Minimum inhibitory concentration (MIC) [11]	Minimum inhibitory concentration (MIC) [13]	IC50 [6, 15]	IC50 ([6]; human, A549 lung cancer cells)	IC50 [6, 16]	IC50 [6, 17]	IC50 [6, 18]	IC50 [6, 19]	IC50 ([6]; mouse, L929 fibroblasts)	also measured
–	–	–	–	2.1 µg/mL (≈ 3.26 µM)	0.2 µg/mL (≈ 0.31 µM)	1 µg/mL (≈ 1.55 µM)	8.30 µg/mL (≈ 12.9 µM)	2.10 µg/mL (≈ 3.26 µM)	CCCC(=O)O[C@H]1c2cc(C)cc(O)c2C(=O)C2=C(O)[C@H]3C=C[C@]21Cc1cc(O)c2c(c13)O[C@]1(C(=O)OC)C(=C(O)CC[C@@H]1O)C2=O [Compound 3, Xanthoquinodin B11]	0.03 to 1.46 µM	2.1 µg/mL (≈ 3.26 µM)			0.05 µM	0.26 µM	0.15 µM	0.04 µM	0.65 µM	0.15 µM	0.98 µM	Minimum inhibitory concentration (MIC) [10]: 2.10 µg/mL (≈ 3.26 µM); MIC [11, 20]: 16.7 µg/mL (≈ 25.9 µM); MIC ([12]; Hansenula anomala, read-out: Minimum inhibitory concentration (MIC)): 8.3 µg/mL (≈ 12.9 µM); MIC [13, 20]: 66.7 µg/mL (≈ 103 µM); MIC [14]: 2.1 µg/mL (≈ 3.26 µM)
–	–	–	–	8.3 µg/mL (≈ 12.9 µM)	4.2 µg/mL (≈ 6.52 µM)	4.2 µg/mL (≈ 6.52 µM)	–	–	CCCC(=O)O[C@H]1c2cc(C)cc(O)c2C(=O)C2=C(O)[C@H]3C=C[C@]21Cc1cc(O)c2c(c13)O[C@@](C(=O)OC)([C@@H]1CCC(=O)O1)CC2=O [Compound 6, Xanthoquinodin B14]	1.03 to 18.6 µM	66.7 µg/mL (≈ 103 µM)	–	–	3.11 µM	18.6 µM	3.42 µM	1.1 µM	5.43 µM	3.88 µM	10.6 µM	
–	–	–	–	4.2 µg/mL (≈ 6.34 µM)	4.2 µg/mL (≈ 6.34 µM)	8.3 µg/mL (≈ 12.5 µM)	–	–	CCCC(=O)O[C@H]1c2cc(C)cc(O)c2C(=O)C2=C(O)[C@H]3C=C[C@]21Cc1cc(O)c2c(c13)O[C@@](C(=O)OC)([C@@H](O)CCC(=O)O)CC2=O [Compound 7, Xanthoquinodin B15]	1.03 to 18.6 µM	66.7 µg/mL (≈ 101 µM)	–	–	2.87 µM	11.5 µM	3.47 µM	1.03 µM	4.98 µM	3.93 µM	9.97 µM	
